From patent publication US4590209A, “Alkoxy-acyl carnitines and pharmaceutical compositions containing same” (Sigma-Tau Industrie Farmaceutiche Riunite S.p.A., priority 1980, dated 1986)
Where a name gives a salt, the structure may show the parent alone.

Columns and labels:
rabbit isolated heart = test: Inotropic effect on isolated rabbit heart (Langendorff) after anoxia; conditions: dose 10^-5 gl^-1, 10 minutes from the interruption of the anoxic period, percentage increase against controls
Procedure: Rabbit hearts isolated by the Langendorff method were perfused with oxygenized Ringer solution at 38.2° C. The isometric contractions, electrogardiogram and coronary flow were recorded using a "Battaglia-Rangoni" polygraph. By removing the oxygen from the perfusion fluid, metabolic damage was induced in the cardiac muscle, up to an 80% reduction in the cardiac contractile force.
Under these conditions of prolonged anoxia the aerobic glycolysis of the myocardium is slowed down, accompanied by the storage of acid catabolites due to both the accumulation of pyruvic acid and its conversion to lactic acid which cannot be utilized because of the depression of pyridine enzymes, such as LDH (lactodehydogenase). This has repercussions on the anaerobic glycolysis affecting an ever increasing number of enzymes, accompanied by a progressive and increasingly critical exhaustion of the myocardium. Thus a whole series of cardiac muscle fatigue levels occurs which can be observed by the behavior of the examined parameters, namely the contractile force, coronary flow, heart rate and cardiac rhythm. As soon as the contractile force was reduced by 80%, the perfusion fluid was once again oxygenized either without adding other compounds (controls) or with the addition of the compounds under examination.
In the Table there are shown the percentage value of increase against the controls.

adrenaline = test: Adrenaline-antagonizing effect (adrenaline-induced mortality); assay type: in vivo, male Albino Swiss mice; conditions: mice, adrenaline after 30 minutes, mortality checked for 36 hours
Procedure: Groups of ten male Albino Swiss mice, weighing 12-22 g, were intraperitoneally administered either with the compounds of the present invention or with saline (control) and, after 30 minutes, with adrenaline (treated) at a dose capable of bringing about death to 100% of the control animals due to ventricular fibrillation and cardiac lesions ensuing from increase in frequency, pressure and oxygen uptake from the myocardium.
Mortality was checked for 36 hours and the effect of the compounds expressed as percentage of surviving animals, is shown in the Table.

mice = test: Antiarrhythmic / antifibrillatory effect, aconitine-induced arrhythmia (Nwangwu et al.); assay type: in vivo
Procedure: In order to evaluate the antiarrhythmic activity of the carnitine derivatives of this invention studied with in vivo tests in addition to and in comparison with the currently employed in vitro tests, the method disclosed by Nwangwu et al. (Arch. Inc. Pharmacodyn., 1977, 229, 219) was used.
According to this method an aconitine solution is injected into the caudal vein of mice and the onset time of arrhythmia and tachycardia after 2 to 60 minutes from administration of the compounds under examination is recorded.
The antiarrhythmic activity calculated from the increase in the latency time of the onset of the arrhythmias of the treated animals in comparison with the controls, is illustrated in the Table.

[1] = Acute toxicity (LD50), Weil method; conditions: mouse, in vivo, ip; mice, intraperitoneal; read-out: i.p. LD50
From the text: Acute toxicity was investigated by using the method disclosed by Weil C. S. in "Tables for convenient calculation of median-effective dose (LD50 or ED50) and instructions in their use", Biometrics, 249-253, 1952.
The tolerance of the compounds under examination was investigated in mice after administration by the intraperitoneal or oral route. […] (see the Table).

Compound: CCOCCC(=O)OC(CC(=O)O)C[N+](C)(C)C (centres unmarked) [R = 3-ethoxypropionyl, 3-ethoxypropionyl carnitine hydrochloride]
- Inotropic effect, % of controls (rabbit isolated heart): +95%
- Antiadrenaline activity, % mortality reduction (adrenaline; dose 450 mg kg^-1 i.p.): 75%
- Antifibrillatory activity, % reduction (mice; dose 300 mg kg^-1 i.v.): 80%
- LD50 [1]: 1300 mg/kg

Compound: COCCCC(=O)OC(CC(=O)O)C[N+](C)(C)C (centres unmarked) [R = 4-methoxybutyryl, 4-methoxybutyryl carnitine]
- Inotropic effect, % of controls (rabbit isolated heart): +85%
- Antiadrenaline activity, % mortality reduction (adrenaline; dose 50 mg kg^-1 i.p.): 78%
- Antifibrillatory activity, % reduction (mice; dose 25 mg kg^-1 i.v.): 85%
- LD50 [1]: 1850 mg/kg
